The results in this text go back to the NIST ThermoML archive (doi:10.1021/je9005097).

For data set [1] the following is noted: Crystal; DTA.
A short description of data set [2]: Molar enthalpy of transition or fusion. The settings on record: Crystal; DSC.

Each structure is given as a SMILES string. ± gives the expanded uncertainty stated by the source.

Regarding `Oc1cc(O)c2cc1Cc1cc(c(O)cc1O)Cc1cc(c(O)cc1O)Cc1cc(c(O)cc1O)C2`, in data set [1], the Normal melting temperature worked out at 305.5 ± 1 °C. Also, in data set [2], the “Molar enthalpy of transition or fusion” value is 9.13 ± 0.263 kcal/mol.
